#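 Test compounds were applied to cells in 96-well plates for 48 hours at 5 doses. Here, GI50 denotes the concentration required for 50% inhibition of growth. At the TGI there is no net growth.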
# Assays:
# Assay in all cases: DTP human tumour cell line panel, 48 h
# CCRF-CEM leukemia = test system: CCRF-CEM leukemia
# K-562 leukemia = test system: K-562 leukemia
# A498 renal = test system: A498 renal
# RXF 393 renal = test system: RXF 393 renal
# T-47D breast = test system: T-47D breast
# HS 578T breast = test system: HS 578T breast
# HCT-15 colon = test system: HCT-15 colon
# SF-268 CNS = test system: SF-268 CNS
# SNB-75 CNS = test system: SNB-75 CNS
# SK-OV-3 ovarian = test system: SK-OV-3 ovarian
# 786-0 renal = test system: 786-0 renal
# OVCAR-4 ovarian = test system: OVCAR-4 ovarian
# SK-MEL-2 melanoma = test system: SK-MEL-2 melanoma
# NCI-H226 lung = test system: NCI-H226 lung
# MDA-MB-231 breast = test system: MDA-MB-231 breast
# SNB-19 CNS = test system: SNB-19 CNS
# OVCAR-8 ovarian = test system: OVCAR-8 ovarian
# HCT-116 colon = test system: HCT-116 colon
# UO-31 renal = test system: UO-31 renal
# HT29 colon = test system: HT29 colon
# NCI/ADR-RES ovarian = test system: NCI/ADR-RES ovarian
# OVCAR-5 ovarian = test system: OVCAR-5 ovarian
# SW-620 colon = test system: SW-620 colon
# EKVX NSCLC = test system: EKVX NSCLC
# A549 NSCLC = test system: A549 NSCLC
# SK-MEL-5 melanoma = test system: SK-MEL-5 melanoma
# BT-549 breast = test system: BT-549 breast
# PC-3 prostate = test system: PC-3 prostate
# DU-145 prostate = test system: DU-145 prostate
smiles,measurement,setting,value
CC1=C(CCC(C)NCc2ccc(OCCCN3CCCCC3)cc2)C(C)(C)CCC1 (configuration not stated),GI50,CCRF-CEM leukemia,1540 nM
same,TGI,CCRF-CEM leukemia,4700 nM
same,GI50,K-562 leukemia,227 nM
same,TGI,K-562 leukemia,509 nM
same,GI50,A498 renal,1430 nM
same,TGI,A498 renal,2950 nM
same,GI50,RXF 393 renal,1600 nM
same,TGI,RXF 393 renal,3060 nM
same,GI50,T-47D breast,1630 nM
same,TGI,T-47D breast,3650 nM
same,GI50,HS 578T breast,1610 nM
same,TGI,HS 578T breast,3790 nM
same,GI50,HCT-15 colon,575 nM
same,TGI,HCT-15 colon,2030 nM
same,GI50,SF-268 CNS,1490 nM
same,TGI,SF-268 CNS,3080 nM
same,GI50,SNB-75 CNS,1390 nM
same,TGI,SNB-75 CNS,2720 nM
same,GI50,SK-OV-3 ovarian,2060 nM
same,TGI,SK-OV-3 ovarian,3760 nM
same,GI50,786-0 renal,1600 nM
same,TGI,786-0 renal,3100 nM
same,GI50,OVCAR-4 ovarian,1990 nM
same,TGI,OVCAR-4 ovarian,5500 nM
same,GI50,SK-MEL-2 melanoma,1490 nM
same,TGI,SK-MEL-2 melanoma,3080 nM
same,GI50,NCI-H226 lung,3820 nM
same,TGI,NCI-H226 lung,16500 nM
same,GI50,MDA-MB-231 breast,1020 nM
same,TGI,MDA-MB-231 breast,2730 nM
same,GI50,SNB-19 CNS,2010 nM
same,TGI,SNB-19 CNS,4260 nM
same,GI50,OVCAR-8 ovarian,2480 nM
same,TGI,OVCAR-8 ovarian,5310 nM
same,GI50,HCT-116 colon,1530 nM
same,TGI,HCT-116 colon,3130 nM
same,GI50,UO-31 renal,1560 nM
same,TGI,UO-31 renal,2970 nM
same,GI50,HT29 colon,384 nM
same,TGI,HT29 colon,1380 nM
same,GI50,NCI/ADR-RES ovarian,1720 nM
same,TGI,NCI/ADR-RES ovarian,3470 nM
same,GI50,OVCAR-5 ovarian,1910 nM
same,TGI,OVCAR-5 ovarian,4110 nM
same,GI50,SW-620 colon,1600 nM
same,TGI,SW-620 colon,3320 nM
same,GI50,EKVX NSCLC,1610 nM
same,TGI,EKVX NSCLC,3940 nM
same,GI50,A549 NSCLC,2170 nM
same,TGI,A549 NSCLC,4350 nM
same,GI50,SK-MEL-5 melanoma,1680 nM
same,TGI,SK-MEL-5 melanoma,3060 nM
same,GI50,BT-549 breast,2080 nM
same,TGI,BT-549 breast,3890 nM
same,GI50,PC-3 prostate,1540 nM
same,TGI,PC-3 prostate,3420 nM
same,GI50,DU-145 prostate,1850 nM
